The source of these data is patent US9180077B2, “Green tea extracts of improved bioavailability” (Nestec S.A., priority 2009, dated 2015).

The nature of the data set: Stability study of green tea catechins: incubation in Na-Pi buffer pH 7.4 at 37° C., HPLC. Type of data set: physicochemical. As for the experimental part: Samples were prepared according to the following method. Briefly, each sample was treated with acetic acid (30% final concentration) for 30 min and then added to an aqueous solution containing 10% acetonitrile, 0.5 mg/mL EDTA and 0.5 mg/mL ascorbic acid. The mix was then centrifuged for 30 min at 14′000×g and the supernatant analysed by HPLC. Following this protocol allows the complete recovery of all catechins.
Green tea catechins were determined by reverse phase HPLC using an analytical method based on the ISO FDIS 14502-2 method. The HPLC system used was a 1100 series Hewlett-Packard (Geneva, Switzerland) model equipped with an ultraviolet-visible photodiode array and a fluorimetric detector. Catechins were detected by UV absorption at 280.4 nm except for catechins and epicatechin that were detected by fluorescence (excitation: 280 nm; emission: 310 nm). Samples (10 μl) were separated on a Zorbax RX—C18 column (4.6 mm internal diameter×250 mm length, Agilent technologies). Flow rate was 1.0 mL/min.
Sample concentration of green tea catechins (C, EC, EgC, EgCg, ECg) were calculated based on the corresponding calibration curve and reported as % of the initial value (sample at t0). Since caffeine, endogenous to green tea samples, is stable under the selected assay conditions, it was used as internal standard for all calculations. […]

In the case of `O=C1O[C@H]([C@@H](O)CO)C(O)=C1O` [vitamin C, ascorbic acid], the protection of catechins entry (0.2 mM, at least for 2 h of incubation, data not shown) was “a certain protection”. In addition, for the setting “stabilisation during 6 h, GTE 0.1%, pH 7.4, 37° C”, the “vitamin C concentration at which the plateau of stabilisation is reached” value was 2.5 mM.
